Patent US10138226B2, “Benzimidazol-2-amines as MIDH1 inhibitors” (Bayer Pharma Aktiengesellschaft, priority 2014, dated 2018)

Columns and labels:
[1] = test system: LN229 R132H cells overexpressing mutated isocitrate dehydrogenase (mIDH); assay: Mutant IDH1 cellular assay (2-HG levels in medium); format: cell-based; conditions: 2-HG in medium of LN229 R132H cells, 24 hours incubation, fluorescence readout
Procedure: Mutant IDH1 Cellular Assay
Levels of (2R)-2-hydroxyglutarate (2HG) were measured in medium of a cell line with overexpression of mutated isocitrate dehydrogenase (mIDH) protein. mIDH catalyzes the NADPH-dependent reduction of alpha-ketoglutarate to 2-HG. Cells (LN229 R132H, Mohrenz et al., Apoptosis (2013) 18:1416-1425) were grown in DMEM containing 10% FCS. They were harvested by trypsin and seeded into 96-well plates. Cells were incubated overnight at 37° C. in 5% CO2. The next day test compounds were added to each cell well. The final concentration of DMSO was 0.1% and DMSO controls were included. The plates were then placed in an incubator for 24 hours.
2-HG was measured according to Balss et al. (Acta Neuropathol (2012) 124: 883-891). Briefly, HClO4 was added to each well and the plates were centrifuged. Aliquots are removed and incubated with hydroxyglutarate dehydrogenase (HGDH), diaphorase, NAD+, and resazurin. The conversion of resazurin to resorufin was detected by fluorescence spectroscopy at Ex 540 nm Em 600 nm. The increase in fluorescence is proportional to 2-HG production. IC50 values are determined by interpolation from plots of relative fluorescence vs inhibitor concentration.

[2] = target: IDH1 R132H enzyme (Homo sapiens (Human), UniProt O75874, R132H); assay: Mutant IDH1 R132H biochemical assay; conditions: NADPH consumption, luminescent readout, 250 μM α-KG, 1 μM NADPH, 32° C., 30 minutes, test range 0.002-10 μM; also: 1.5 nM enzyme
Sequence of IDH1 R132H enzyme (O75874 whole entry R132H): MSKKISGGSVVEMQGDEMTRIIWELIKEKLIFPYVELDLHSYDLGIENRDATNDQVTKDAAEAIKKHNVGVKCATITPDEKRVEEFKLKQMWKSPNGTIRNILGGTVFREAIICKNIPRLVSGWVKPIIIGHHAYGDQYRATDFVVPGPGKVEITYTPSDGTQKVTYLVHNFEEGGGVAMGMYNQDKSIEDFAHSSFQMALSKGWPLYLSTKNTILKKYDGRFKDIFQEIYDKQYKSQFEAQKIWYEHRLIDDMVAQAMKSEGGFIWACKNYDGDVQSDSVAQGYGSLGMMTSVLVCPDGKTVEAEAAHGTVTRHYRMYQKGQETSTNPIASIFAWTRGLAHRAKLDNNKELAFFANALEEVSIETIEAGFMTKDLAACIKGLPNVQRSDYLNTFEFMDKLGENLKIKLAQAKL
Procedure: mIDH1 catalyzes the NADPH-dependent reduction of alpha-ketoglutarate (α-KG) to (2R)-2-hydroxyglutarate (2-HG). NADPH consumption was measured by luminescent readout.
The biochemical reactions were performed at 32° C. in 384-well plates using a reaction volume of 41 μl and the following assay buffer conditions: 50 mM Tris pH 7.5, 100 mM NaCl, 20 mM MgCl2, 0.05% BSA, 0.01% Brij, 1 μM NADPH, and 250 μM α-KG. […] Test compounds were used in a concentration range between 0.002 and 10 μM. The final DMSO concentration was 2.4%.
The reaction was incubated for 30 minutes, then 40 μl of detection mix (0.75 μg/ml Luciferase, 0.02 U/ml Oxidoreductase, 4 μg/ml FMN, 2 μl/ml Decanal/Ethanol, 50 mM Tris pH 7.5, 0.5% Glycerin, 0.01% Tween-20, 0.05% BSA) was added. Luminescence was measured on a luminescent reader (10 seconds measuring time, 1 second integration period, 30% sensitivity). The decrease in luminescence is proportional to mIDH1 activity. IC50 values are determined by interpolation from plots of relative luminescence versus inhibitor concentration.

Compound | IC50 [2] [µM] | further results
COC(=O)c1ccc2nc(Nc3ccc(OC(F)(F)F)cc3)n([C@H]3C[C@@H](C)CC(C)(C)C3)c2c1 (racemic) [Example 2-1, (±) methyl 2-{[4-(trifluoromethoxy)phenyl]amino}-1-[(cis)-3,3,5-trimethylcyclohexyl]-1H-benzimidazole-6-carboxylate] |  | IC50 ([1]; Homo sapiens, LN-229, 24 h): 3.2 µM
COC(=O)c1ccc2nc(Nc3ccc(OC(F)(F)F)cc3)n([C@H]3C[C@H](C)CC(C)(C)C3)c2c1 (racemic) [Example 2-2, (±) methyl 2-{[4-(trifluoromethoxy)phenyl]amino}-1-[(trans)-3,3,5-trimethylcyclohexyl]-1H-benzimidazole-6-carboxylate] |  | IC50 ([1]; Homo sapiens, LN-229, 24 h): 10 µM
C[C@@H]1C[C@H](n2c(Nc3ccc(OC(F)(F)F)cc3)nc3ccc(C(=O)NC4CCCC4)cc32)CC(C)(C)C1 (racemic) [Example 2-5, (±) N-cyclopentyl-2-{[4-(trifluoromethoxy)phenyl]amino}-1-[(cis)-3,3,5-trimethylcyclohexyl]-1H-benzimidazole-6-carboxamide] | ≥ 10 | 
C[C@@H]1C[C@H](n2c(Nc3ccc(OC(F)(F)F)cc3)nc3ccc(C(=O)N(C)CC(=O)O)cc32)CC(C)(C)C1 (racemic) [Example 2-11, (±) N-methyl-N-[(2-{[4-(trifluoromethoxy)phenyl]amino}-1-[(cis)-3,3,5-trimethylcyclohexyl]-1H-benzimidazol-6-yl)carbonyl]glycine] | 7.6 | 
C[C@@H]1C[C@H](n2c(Nc3ccc(OC(F)(F)F)cc3)nc3ccc(C(=O)NCCO)cc32)CC(C)(C)C1 (racemic) [Example 2-13, (±) N-(2-hydroxyethyl)-2-{[4-(trifluoromethoxy)phenyl]amino}-1-[(cis)-3,3,5-trimethylcyclohexyl]-1H-benzimidazole-6-carboxamide] | 2.2 | 
C[C@@H]1C[C@H](n2c(Nc3ccc(OC(F)(F)F)cc3)nc3ccc(C(=O)NCCC(=O)O)cc32)CC(C)(C)C1 (racemic) [Example 2-15, (±) N-[(2-{[4-(trifluoromethoxy)phenyl]amino}-1-[(cis)-3,3,5-trimethylcyclohexyl]-1H-benzimidazol-6-yl)carbonyl]-β-alanine] | ≥ 10 | 
C[C@@H]1C[C@H](n2c(Nc3ccc(OC(F)(F)F)cc3)nc3ccc(C(=O)NCc4ccc(F)cc4)cc32)CC(C)(C)C1 (racemic) [Example 2-21, (±) N-(4-fluorobenzyl)-2-{[4-(trifluoromethoxy)phenyl]amino}-1-[(cis)-3,3,5-trimethylcyclohexyl]-1H-benzimidazole-6-carboxamide] | ≥ 10 | 
CCOC(=O)CCN(C)C(=O)c1ccc2nc(Nc3ccc(OC(F)(F)F)cc3)n([C@H]3C[C@@H](C)CC(C)(C)C3)c2c1 (racemic) [Example 2-24, (±) ethyl N-methyl-N-[(2-{[4-(trifluoromethoxy)phenyl]amino}-1-[(cis)-3,3,5-trimethylcyclohexyl]-1H-benzimidazol-6-yl)carbonyl]-β-alaninate] | ≥ 10 | 
CNC(=O)c1ccc2nc(Nc3ccc(OC(F)(F)F)cc3)n([C@H]3C[C@@H](C)CC(C)(C)C3)c2c1 (single isomer, unassigned; enantiomer a) [Example 2-8-1, N-methyl-2-{[4-(trifluoromethoxy)phenyl]amino}-1-[(cis)-3,3,5-trimethylcyclohexyl]-1H-benzimidazole-6-carboxamide, enantiomer A] | 0.92 | 
C[C@@H]1C[C@H](n2c(Nc3ccc(OC(F)(F)F)cc3)nc3ccc(C(=O)N4CCOCC4)cc32)CC(C)(C)C1 (single isomer, unassigned; enantiomer a) [Example 2-16-1, morpholin-4-yl(2-{[4-(trifluoromethoxy)phenyl]amino}-1-[(cis)-3,3,5-trimethylcyclohexyl]-1H-benzimidazol-6-yl)methanone, enantiomer A] |  | IC50 [1]: 0.5 µM
COC(=O)c1ccc2nc(Nc3ccc(OC(F)(F)F)cc3)n([C@H]3C[C@@H](C)CC(C)(C)C3)c2c1 (single isomer, unassigned; enantiomer b) [Example 2-1-2, methyl 2-{[4-(trifluoromethoxy)phenyl]amino}-1-[(cis)-3,3,5-trimethylcyclohexyl]-1H-benzimidazole-6-carboxylate, enantiomer B] |  | IC50 ([1]; Homo sapiens, LN-229, 24 h): 5.7 µM
CNC(=O)c1ccc2nc(Nc3ccc(OC(F)(F)F)cc3)n([C@H]3C[C@@H](C)CC(C)(C)C3)c2c1 (single isomer, unassigned; enantiomer b) [Example 2-8-2, N-methyl-2-{[4-(trifluoromethoxy)phenyl]amino}-1-[(cis)-3,3,5-trimethylcyclohexyl]-1H-benzimidazole-6-carboxamide, enantiomer B] | 1.2 | 

The next lines start with results.

IC50 [2] [µM] | Compound | further results
0.43 | CNC(=O)c1ccc2nc(Nc3ccc(OC(F)(F)F)cc3)n([C@H]3C[C@@H](C)CC(C)(C)C3)c2c1 (racemic) [Example 2-8, (±) N-methyl-2-{[4-(trifluoromethoxy)phenyl]amino}-1-[(cis)-3,3,5-trimethylcyclohexyl]-1H-benzimidazole-6-carboxamide] | 
6.6 | COC(=O)CNC(=O)c1ccc2nc(Nc3ccc(OC(F)(F)F)cc3)n([C@H]3C[C@@H](C)CC(C)(C)C3)c2c1 (racemic) [Example 2-10, (±) methyl N-[(2-{[4-(trifluoromethoxy)phenyl]amino}-1-[(cis)-3,3,5-trimethylcyclohexyl]-1H-benzimidazol-6-yl)carbonyl]glycinate] | 
≥ 10 | COC(=O)CCNC(=O)c1ccc2nc(Nc3ccc(OC(F)(F)F)cc3)n([C@H]3C[C@@H](C)CC(C)(C)C3)c2c1 (racemic) [Example 2-14, (±) methyl N-[(2-{[4-(trifluoromethoxy)phenyl]amino}-1-[(cis)-3,3,5-trimethylcyclohexyl]-1H-benzimidazol-6-yl)carbonyl]-β-alaninate] | 
≥ 10 | C[C@@H]1C[C@H](n2c(Nc3ccc(OC(F)(F)F)cc3)nc3ccc(C(=O)NS(C)(=O)=O)cc32)CC(C)(C)C1 (racemic) [Example 2-19, (±) N-(methylsulfonyl)-2-{[4-(trifluoromethoxy)phenyl]amino}-1-[(cis)-3,3,5-trimethylcyclohexyl]-1H-benzimidazole-6-carboxamide] | 
≥ 10 | C[C@@H]1C[C@H](n2c(Nc3ccc(OC(F)(F)F)cc3)nc3ccc(C(=O)Nc4ccc(F)cc4)cc32)CC(C)(C)C1 (racemic) [Example 2-22, (±) N-(4-fluorophenyl)-2-{[4-(trifluoromethoxy)phenyl]amino}-1-[(cis)-3,3,5-trimethylcyclohexyl]-1H-benzimidazole-6-carboxamide] | 
≥ 10 | C[C@@H]1C[C@H](n2c(Nc3ccc(OC(F)(F)F)cc3)nc3ccc(C(=O)NC4CC4)cc32)CC(C)(C)C1 (racemic) [Example 2-23, (±) N-cyclopropyl-2-{[4-(trifluoromethoxy)phenyl]amino}-1-[(cis)-3,3,5-trimethylcyclohexyl]-1H-benzimidazole-6-carboxamide] | 
0.47 | C[C@H]1C[C@H](n2c(Nc3ccc(OC(F)(F)F)cc3)nc3ccc(C(=O)N(C)C)cc32)CC(C)(C)C1 (racemic) [Example 2-25, (±) N,N-dimethyl-2-{[4-(trifluoromethoxy)phenyl]amino}-1-[(trans)-3,3,5-trimethylcyclohexyl]-1H-benzimidazole-6-carboxamide] | 
≥ 10 | C[C@@H]1C[C@H](n2c(Nc3ccc(OC(F)(F)F)cc3)nc3ccc(C(=O)NC4CC4)cc32)CC(C)(C)C1 (single isomer, unassigned; enantiomer a) [Example 2-23-1, N-cyclopropyl-2-{[4-(trifluoromethoxy)phenyl]amino}-1-[(cis)-3,3,5-trimethylcyclohexyl]-1H-benzimidazole-6-carboxamide, enantiomer A] | 
≥ 10 | C[C@@H]1C[C@H](n2c(Nc3ccc(OC(F)(F)F)cc3)nc3ccc(C(=O)NC4CC4)cc32)CC(C)(C)C1 (single isomer, unassigned; enantiomer b) [Example 2-23-2, N-cyclopropyl-2-{[4-(trifluoromethoxy)phenyl]amino}-1-[(cis)-3,3,5-trimethylcyclohexyl]-1H-benzimidazole-6-carboxamide, enantiomer B] | 
